One test addresses T1, FOXM1-DNA (Homo sapiens, UniProt Q08050).
T1 construct: the FoxMIC gene (residues 222-360) was cloned in a pET-28 vector; made in house; host or cells: E. coli BL21 (DE3)
T1 sequence (Q08050 222-360): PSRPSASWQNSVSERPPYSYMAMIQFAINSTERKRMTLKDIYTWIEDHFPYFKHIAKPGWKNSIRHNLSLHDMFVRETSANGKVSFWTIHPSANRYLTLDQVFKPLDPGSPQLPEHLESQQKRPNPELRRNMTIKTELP
The experiment in a line: Multiplexed nanopore single-molecule measurement, FOXM1-DNA pair (Reporter 2). It counts as binding. Conditions: increasing amounts of FDI-6.

The target in the next test is T2, RepE-DNA (Escherichia coli, UniProt P03856).
T2 construct: purified from an intein vector pTXB1 containing the ORF fused with intein at the C terminus; made in house; host or cells: E. coli BL21 (DE3)
The experiment in a line: Multiplexed nanopore single-molecule measurement, RepE-DNA pair (Reporter 1). Conditions: 0.87 µM RepE, 0.047 µM DNA, increasing amounts of FDI-6, n = 4. It counts as binding.

A further test deals with T3, FOXM1 (Homo sapiens, UniProt Q08050).
T3 construct: the FoxMIC gene (residues 222-360) was cloned in a pET-28 vector; made in house; host or cells: E. coli BL21 (DE3)
T3 sequence (Q08050 222-360): T1 sequence (Q08050 222-360)
The experiment in a line: Nanopore single-molecule measurement of the inhibition of FOXM1 binding to its DNA target sequence. How it is done: The cis compartment (connected to the ground electrode and where samples were added) was filled with 5 mM MgCl2, 150 mM KCl, 10 mM HEPES pH 7.2 (to mimic physiological conditions) and the trans compartment with 5 mM MgCl2, 2 M KCl, 10 mM HEPES pH 7.2 (to increase the ionic current signal). 0.5 µL of previously heptamerized α-HL was added to the cis compartment and following the first insertion the chamber was manually perfused to remove excess of α-HL. Ionic currents through the αHL pore were measured using Ag/AgCl electrodes with agar bridges in 3 M KCl, and balanced before measurements. The electrodes were connected to an amplifier (Axopatch 200B, Molecular Devices), the signal was filtered at 5 kHz (lowpass Bessel filter) and acquired at 20 kHz with a digitizer (Digidata 1440A, Molecular Devices). All experiments were repeated in at least 3 different pores. Raw data was first analyzed with pClamp software (Molecular Devices) to obtain the current and dwell time of the ionic current levels, >90% of the signals longer than 10 ms were the characteristic signals described in the main text. The residual current of a level is defined as the ionic current of the level divided by the ionic current of the open pore. Data analysis was carried out with Igor Pro (Wavemetrics) and molecular representations were performed using Chimera (UCSF).^47 The confidence interval of the kinetic rates were estimated using: kupp = k⋅(1+z/√n) [formula] klow = k⋅(1−z/√n) [formula] Transcription factors are frequently considered as ideal targets for cancer therapy, yet finding molecules capable of specifically inhibiting their interactions with DNA is challenging. Motivated by the high sensitivity of our measurements, we aimed to explore the capabilities of the nanopore to detect small molecule activity. We choose the DNA binding domain of Forkhead box protein M1 (FOXM1), which is overexpressed in many cancers and for which a molecule that inhibits binding to its target sequence has been reported, FDI-6^37 (Figure 3). When a DNA hairpin containing the binding sequence^38 and a 5' overhang is subjected to nanopore analysis we observe the characteristic ionic current signal reflecting the threading, unzipping and translocation of the DNA (Figure 3a). […] In agreement with previous reports,^29 we attribute the differences in unzipping kinetics to the differences in the first base pair to be unzipped. The RepE oligonucleotide begins with G-C while that of FOXM1 begins with A-T. Following the addition of FOXM1 protein, events showing an additional step are detected (Figure 3b), which correspond to the threading of protein-bound DNA molecules, detachment of the protein, unzipping and translocation of the DNA through the pore. […]

The test system of a further test is DNA-hairpin reporter. The test can be described thus: Nanopore detection of a non-specific DNA interacting compound. It counts as binding.

Consider two compounds from patent EP3404113A1, “METHOD FOR DETECTING PROTEIN-DNA INTERACTION” (Universidad del Pais Vasco, priority 2017, dated 2018).

“Also recorded” adds a separate entry of the source.

What is called Kd is the equilibrium constant for the complex coming apart. Lower therefore signals tighter binding. As a reminder, the koff is a measure of how fast the partners let go of each other. In the case of `Nc1c(C(=O)Nc2ccc(F)cc2)sc2nc(-c3cccs3)cc(C(F)(F)F)c12` [FDI-6], on FOXM1-DNA, the “fraction of events assigned to Reporter 2 with bound protein” value is given as “decreased”. At RepE-DNA, the “effect on the interaction between RepE and its target sequence” value was “had no effect; also recorded: in none of our measurements was the RepE-DNA pair affected”. Moreover, at FOXM1, the “mechanism of action deduced from kinetics of DNA unzipping and protein detachment” value was “binds the protein (not the DNA), and that binding is competitive”. The compound also yielded a Kd on FOXM1 (affinity of the inhibitor for the protein, model: one site, reversible, binding completely prevents protein-DNA interaction, mean ± SD, n=7) of 139 ± 73 µM. In addition, on FOXM1 (protein detachment from DNA in the presence of FDI-6, +90 mV, 95 % CI, n = 3, compound absent 57 [96 - 18], read-out: koff,90mV,FD16), the dissociation rate constant (koff) was found to be 49 s⁻¹. Also, on FOXM1 (sequential additions of FDI-6 to FOXM1-DNA solution), the “fraction of events with a protein bound to DNA” value is reported as “decreases”.
On to `COc1cccc2c1C(=O)c1c(O)c3c(c(O)c1C2=O)C[C@@](O)(C(=O)CO)C[C@@H]3O[C@H]1C[C@H](N)[C@H](O)[C@H](C)O1` [doxorubicin], for which, in the test on DNA-hairpin reporter (2.5 mM doxorubicin added to a solution of RepE and its DNA-hairpin reporter), the ionic current traces entry is “no characteristic signal for DNA unzipping and translocation was detected”. Besides, in the test with DNA-hairpin reporter (interaction of doxorubicin with the DNA), the ionic current signal entry was “radically changed the ionic current signal, giving noisy long-lived events”.
